# Test results as given in article doi:10.1101/2025.03.25.645215v1 (biorxiv, 2025).
# T1: B^0AT2/SLC6A15 (eGFP-hSLC6A15) (Homo sapiens, UniProt Q9H2J7)
# T1 sequence (Q9H2J7 1-730): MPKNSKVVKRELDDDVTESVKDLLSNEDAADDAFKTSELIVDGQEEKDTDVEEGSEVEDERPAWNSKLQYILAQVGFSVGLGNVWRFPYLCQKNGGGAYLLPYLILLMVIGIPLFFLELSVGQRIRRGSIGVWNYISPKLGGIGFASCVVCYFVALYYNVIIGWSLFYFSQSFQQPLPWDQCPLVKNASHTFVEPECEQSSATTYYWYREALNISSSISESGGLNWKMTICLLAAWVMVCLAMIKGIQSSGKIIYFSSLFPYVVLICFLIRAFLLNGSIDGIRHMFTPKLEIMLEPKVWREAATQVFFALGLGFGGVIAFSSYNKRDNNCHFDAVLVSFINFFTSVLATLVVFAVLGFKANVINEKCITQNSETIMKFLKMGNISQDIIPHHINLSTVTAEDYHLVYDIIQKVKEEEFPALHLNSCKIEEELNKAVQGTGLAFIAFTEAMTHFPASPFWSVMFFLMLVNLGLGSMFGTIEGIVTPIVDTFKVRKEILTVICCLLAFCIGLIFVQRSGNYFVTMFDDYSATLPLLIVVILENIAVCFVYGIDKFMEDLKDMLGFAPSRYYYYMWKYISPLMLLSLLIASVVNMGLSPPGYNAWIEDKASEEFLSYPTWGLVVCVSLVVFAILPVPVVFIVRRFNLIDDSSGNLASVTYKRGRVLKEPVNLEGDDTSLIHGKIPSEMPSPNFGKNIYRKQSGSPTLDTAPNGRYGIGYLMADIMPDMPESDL
# Experiments:
# GAT1 (hGAT1) = GAT1 (hGAT1) (Homo sapiens, UniProt P30531); experiment: 3H-GABA uptake inhibition, HEK293, 384-well; format: cell-based
# SERT (hSERT) = SERT (hSERT) (Homo sapiens, UniProt P31645); experiment: 3H-5HT uptake inhibition, HEK293, 384-well; format: cell-based
# [1] = tested on: NTT4/SLC6A17 (NTT4-B^0AT2 chimera); experiment: 3H-proline uptake inhibition, HEK293, 384-well; format: cell-based; conditions: blanket statement for all 1,5-benzodiazepine analogs
# [2] = molecular target: T1, B^0AT2/SLC6A15 (eGFP-hSLC6A15); experiment: cell-based; parameters: species or system HEK293 eGFP-hSLC6A15
# [3] = molecular target: T1, B^0AT2/SLC6A15 (eGFP-hSLC6A15); experiment: cell-based; parameters: species or system HEK293 eGFP-hSLC6A15; remark: listed apart in the source
# DAT (hDAT) = DAT (hDAT) (Homo sapiens, UniProt Q01959); experiment: 3H-dopamine uptake inhibition, HEK293, 384-well; format: cell-based
# [4] = molecular target: T1, B^0AT2/SLC6A15 (eGFP-hSLC6A15); experiment: cell-based; parameters: species or system HEK293 eGFP-hSLC6A15; remark: listed apart in the source
# [5] = molecular target: T1, B^0AT2/SLC6A15 (eGFP-hSLC6A15); experiment: inhibition of 3H-proline uptake, HEK293; format: cell-based
# [6] = molecular target: T1, B^0AT2/SLC6A15 (eGFP-hSLC6A15); experiment: inhibition of 3H-proline uptake by unlabelled proline, HEK293; format: cell-based
# [7] = substrate: O=C(O)[C@@H]1CCCN1; experiment: cells, lysate or membranes; conditions: labelled compound, pH 7.4, 120 mM Na+
# SERT (hSERT), sequence (P31645 whole entry): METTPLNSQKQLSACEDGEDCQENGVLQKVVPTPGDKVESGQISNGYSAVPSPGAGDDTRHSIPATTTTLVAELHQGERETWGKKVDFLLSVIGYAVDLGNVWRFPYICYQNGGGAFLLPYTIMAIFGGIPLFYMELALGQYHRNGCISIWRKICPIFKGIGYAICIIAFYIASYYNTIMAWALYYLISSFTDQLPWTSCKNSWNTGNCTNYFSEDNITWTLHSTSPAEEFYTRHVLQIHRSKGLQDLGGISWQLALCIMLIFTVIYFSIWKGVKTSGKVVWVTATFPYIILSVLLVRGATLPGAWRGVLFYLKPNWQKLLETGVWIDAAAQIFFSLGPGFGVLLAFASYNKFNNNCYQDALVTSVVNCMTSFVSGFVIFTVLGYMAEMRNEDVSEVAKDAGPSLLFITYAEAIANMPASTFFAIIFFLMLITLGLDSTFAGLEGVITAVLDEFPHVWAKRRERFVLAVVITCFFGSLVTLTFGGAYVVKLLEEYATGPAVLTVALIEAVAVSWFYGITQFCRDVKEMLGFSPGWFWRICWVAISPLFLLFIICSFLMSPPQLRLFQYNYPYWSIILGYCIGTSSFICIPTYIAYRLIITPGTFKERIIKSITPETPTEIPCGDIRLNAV
# GAT1 (hGAT1), sequence (P30531 whole entry): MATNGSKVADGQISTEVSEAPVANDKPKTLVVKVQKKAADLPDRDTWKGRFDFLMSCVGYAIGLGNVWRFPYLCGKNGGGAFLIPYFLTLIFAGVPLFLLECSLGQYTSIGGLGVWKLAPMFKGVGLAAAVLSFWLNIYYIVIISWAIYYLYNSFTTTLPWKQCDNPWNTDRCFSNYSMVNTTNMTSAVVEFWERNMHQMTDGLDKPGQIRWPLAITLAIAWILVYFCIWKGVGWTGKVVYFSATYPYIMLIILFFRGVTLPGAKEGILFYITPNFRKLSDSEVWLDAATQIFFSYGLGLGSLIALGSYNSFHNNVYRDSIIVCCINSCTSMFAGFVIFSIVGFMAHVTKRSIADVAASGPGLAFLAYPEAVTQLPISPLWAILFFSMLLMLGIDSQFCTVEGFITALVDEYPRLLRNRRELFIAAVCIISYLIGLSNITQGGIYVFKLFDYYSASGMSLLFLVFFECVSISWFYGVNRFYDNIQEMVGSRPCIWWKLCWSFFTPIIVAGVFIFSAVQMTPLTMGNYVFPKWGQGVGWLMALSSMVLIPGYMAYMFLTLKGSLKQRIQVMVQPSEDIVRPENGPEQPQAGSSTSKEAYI
# DAT (hDAT), sequence (Q01959 whole entry): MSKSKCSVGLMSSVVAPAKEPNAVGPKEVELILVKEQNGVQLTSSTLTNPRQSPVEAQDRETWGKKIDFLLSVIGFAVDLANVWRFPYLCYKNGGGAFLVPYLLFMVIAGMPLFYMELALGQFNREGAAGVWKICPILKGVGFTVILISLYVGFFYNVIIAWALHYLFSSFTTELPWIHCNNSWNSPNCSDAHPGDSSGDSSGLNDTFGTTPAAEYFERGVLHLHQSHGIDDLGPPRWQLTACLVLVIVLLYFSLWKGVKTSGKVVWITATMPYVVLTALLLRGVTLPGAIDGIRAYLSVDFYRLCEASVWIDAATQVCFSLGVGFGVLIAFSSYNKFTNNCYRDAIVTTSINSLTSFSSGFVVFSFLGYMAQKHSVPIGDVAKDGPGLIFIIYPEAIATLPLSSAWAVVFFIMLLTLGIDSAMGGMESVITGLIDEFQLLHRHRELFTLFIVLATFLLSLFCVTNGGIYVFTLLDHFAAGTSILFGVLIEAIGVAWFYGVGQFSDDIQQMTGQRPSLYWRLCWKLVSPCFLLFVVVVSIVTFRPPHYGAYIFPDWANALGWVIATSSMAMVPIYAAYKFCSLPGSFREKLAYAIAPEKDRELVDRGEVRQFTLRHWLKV
Molecule,IC50 (GAT1 (hGAT1)) [µM],IC50 (SERT (hSERT)) [µM],IC50 [1] [µM],IC50 [2] [µM],also measured
COc1cc(C2C3=C(CCCC3=O)Nc3ccccc3N2C(=O)c2ccccc2)ccc1O (stereo not shown) [10a],> 80,> 80,> 80,0.93 ± 0.08,–
COc1ccc(C2C3=C(CCCC3=O)Nc3ccccc3N2C(=O)c2ccccc2)cc1OC (stereo not shown) [10b],–,–,–,1.4 ± 0.2,–
COc1ccc(C2C3=C(CCCC3=O)Nc3ccccc3N2C(=O)c2ccccc2)cc1 (stereo not shown) [10c],–,–,–,0.66 ± 0.07,–
O=C1CCCC2=C1C(c1ccc(Cl)c(Cl)c1)N(C(=O)c1ccccc1)c1ccccc1N2 (stereo not shown) [10d],–,–,–,2.5 ± 0.4,–
O=C1CCCC2=C1C(c1ccc(F)cc1)N(C(=O)c1ccccc1)c1ccccc1N2 (stereo not shown) [10e],–,–,–,2.9 ± 0.6,–
O=C1CCCC2=C1C(c1ccccc1)N(C(=O)c1ccccc1)c1ccccc1N2 (stereo not shown) [10f],–,–,–,1.2 ± 0.2,–
CC1(C)CC(=O)C2=C(C1)Nc1ccccc1N(C(=O)c1ccccc1)C2c1ccc(C(C)(C)C)cc1 (stereo not shown) [11n],> 80,> 80,> 80,–,IC50 [3]: > 80 µM
COc1cc(C2C3=C(CC(C)(C)CC3=O)Nc3ccccc3N2C(=O)c2ccccc2)ccc1O (stereo not shown) [11v],> 80,> 80,> 80,–,IC50 [3]: 0.24 ± 0.02 µM
CC1(C)CC(=O)C2=C(C1)Nc1ccccc1N(C(=O)c1ccccc1)C2c1ccc2c(c1)OCO2 (stereo not shown) [11x],> 80,> 80,> 80,–,IC50 (DAT (hDAT)): > 80 µM; IC50 [3]: 0.8 ± 0.3 µM
COc1ccc(C2C3=C(CC(c4ccco4)CC3=O)Nc3ccccc3N2C(=O)c2ccccc2)cc1 (stereo not shown) [14d],> 80,> 80,> 80,–,IC50 (DAT (hDAT)): > 80 µM; IC50 [4]: 0.49 ± 0.03 µM
COc1ccc(C2C3=C(CC(c4ccc(OC)c(OC)c4)CC3=O)Nc3ccccc3N2C(=O)c2ccccc2)cc1 (stereo not shown) [14f],> 80,> 80,> 80,–,IC50 [4]: > 80 µM
CC(C)C[C@H](N)C(=O)O [leucine],–,–,–,–,IC50 [5]: 210 ± 30 µM
O=C(O)[C@@H]1CCCN1 [proline],–,–,–,–,IC50 [6]: 257 ± 53 µM
B^0AT2/SLC6A15 (eGFP-hSLC6A15) (Homo sapiens) (protein) MPKNSKVVKRELDDDVTESVKDLLSNEDAADDAFKTSELIVDGQEEKDTDVEEGSEVEDERPAWNSKLQYILAQVGFSVGLGNVWRFPYLCQKNGGGAYLLPYLILLMVIGIPLFFLELSVGQRIRRGSIGVWNYISPKLGGIGFASCVVCYFVALYYNVIIGWSLFYFSQSFQQPLPWDQCPLVKNASHTFVEPECEQSSATTYYWYREALNISSSISESGGLNWKMTICLLAAWVMVCLAMIKGIQSSGKIIYFSSLFPYVVLICFLIRAFLLNGSIDGIRHMFTPKLEIMLEPKVWREAATQVFFALGLGFGGVIAFSSYNKRDNNCHFDAVLVSFINFFTSVLATLVVFAVLGFKANVINEKCITQNSETIMKFLKMGNISQDIIPHHINLSTVTAEDYHLVYDIIQKVKEEEFPALHLNSCKIEEELNKAVQGTGLAFIAFTEAMTHFPASPFWSVMFFLMLVNLGLGSMFGTIEGIVTPIVDTFKVRKEILTVICCLLAFCIGLIFVQRSGNYFVTMFDDYSATLPLLIVVILENIAVCFVYGIDKFMEDLKDMLGFAPSRYYYYMWKYISPLMLLSLLIASVVNMGLSPPGYNAWIEDKASEEFLSYPTWGLVVCVSLVVFAILPVPVVFIVRRFNLIDDSSGNLASVTYKRGRVLKEPVNLEGDDTSLIHGKIPSEMPSPNFGKNIYRKQSGSPTLDTAPNGRYGIGYLMADIMPDMPESDL,–,–,–,–,Km [7]: 960 ± 51 µM
